The test system of one test is HLA-B7. The experiment in a line: HLA binding of NEG8 peptides shared with other flu proteins (Table 5), B7. Particulars: score printed after 'B7:'; no method or unit given. An excerpt: (§1) was used to search datasets of T cell epitopes derived from influenza virus infected cells. The NEG8 peptides described in Examples 1 and 2 were also identified using this search. The purpose of performing the search was to establish whether any NEG8 peptides or sequences within the polypeptide encoded by the NEG8 ORF are shared with any other influenza A virus proteins. Table 5 sets out T cell epitopes derived from influenza A virus proteins other than NEG8 that are also comprised in one or more of the NEG8 peptides identified in Examples 1 and 2 or the polypeptide encoded by the NEG8 ORF. From this, numerous NEG8 peptides considered to bind to MHC in cells infected with influenza A virus can be identified based on confidence level, XCorr, and performance of fragment mass spectra.

A further test concerns MHC class I. In kind it is cell-based.
Another test has as its system HLA-A24. The experiment in a line: HLA binding of NEG8 peptides shared with other flu proteins (Table 5), A24. Particulars: no method or unit given.
Excerpt: as §1

In the next test the test system is HLA-A2. The test is described as follows: HLA binding of NEG8 peptides shared with other flu proteins (Table 5), A2. Particulars: score printed after 'A2:'; no method or unit given.
Excerpt: as §1

On to SPLQLAILSL (Influenza A virus), for which the “HLA binding B7” value with HLA-B7 is “B7:22”.

IAPSSVKALS (Influenza A virus): the “found in influenza A virus-infected cells” value (“found” for short) in the test on MHC class I is given as “truly found in influenza A virus-infected cells”.

With FLICVSPLQL (Influenza A virus), the “HLA binding A24” value in the test with HLA-A24 is recorded as “A24:13”. Besides, in the test on HLA-A2, the “HLA binding A2” value is “A2:24”.

As to LFLICVSLL (Influenza A virus), in the test on HLA-A24, the “HLA binding A24” value is on record as “A24:21”. For the same sequence, the “HLA binding A2” value in the test on HLA-A2 is listed as “A2:18”.

For the sequence AFSVMFLSM, the “HLA binding A24” value with HLA-A24 is recorded as “A24:7”.

Take KITLKFAFNMM (Influenza A virus): the “found” value in the test on MHC class I is “truly found in influenza A virus-infected cells”.

Turning to AFNMMFLSM, the “HLA binding A24” value in the test with HLA-A24 is “A24:7”. In addition, in the test on HLA-A2, the “HLA binding A2” value is listed as “A2:10”.

With AILSLQTFD (Influenza A virus), the “HLA binding A24” value in the test with HLA-A24 was “A24:2”.

For the sequence ALSSIRVSS (Influenza A virus), the “HLA binding A2” value in the test with HLA-A2 is on record as “A2:16”. For the same sequence, the “HLA binding B7” value with HLA-B7 is “B7:7”.

LMQRGPSTF (Influenza A virus): the “found” value with MHC class I was “truly found in influenza A virus-infected cells”.

(Values after patent US12156909B2, “Reverse peptide vaccine” (Emergex Vaccines Holding Limited, priority 2018, dated 2024).)
